Source: US8445408B2, “Pyrimidine derivatives and their use for controlling undesired plant growth” (Bayer Cropscience AG, priority 2008, dated 2013)

Columns and labels:
[1] = tested on: Polygonum convolvulus; test: Pre-emergence herbicidal effect; type: in vivo; details: Dosage 320 (0.32 kg active substance per hectare); visual scoring after 3 weeks vs untreated controls; 100% = plants have died
Text: (§1) Seeds of monocotyledonous or dicotyledonous weed plants or crop plants are planted in wood-fiber pots in sandy loam and covered with earth. The compounds according to the invention, formulated in the form of wettable powders (WP) or as emulsion concentrates (EC), are then applied as aqueous suspension or emulsion at a water application rate of 600 to 800 I/ha (converted) with the addition of 0.2% of wetting agent to the surface of the covering earth. Following the treatment, the pots are placed in a greenhouse and kept under good growth conditions for the test plants. The visual scoring of the damage on the test plants is carried out after an experiment time of 3 weeks in comparison with untreated controls (herbicidal effect in percent (%): 100% effect=plants have died, 0% effect=as control plants). [table]

[2] = tested on: Veronica persica; test: Pre-emergence herbicidal effect; type: in vivo; details: Dosage 320 (0.32 kg active substance per hectare); visual scoring after 3 weeks vs untreated controls; 100% = plants have died
Text: as §1

[3] = tested on: Amaranthus retroflexus; test: Pre-emergence herbicidal effect; type: in vivo; details: Dosage 320 (0.32 kg active substance per hectare); visual scoring after 3 weeks vs untreated controls; 100% = plants have died
Text: as §1

[4] = tested on: Polygonum convolvulus; test: Post-emergence herbicidal effect; type: in vivo; details: Dosage 320 (0.32 kg active substance per hectare); treated in one-leaf stage; visual scoring after ca. 3 weeks vs untreated controls; 100% = plants have died
Experimental: (§2) [table] 2. Post-emergence herbicidal effect and crop plant compatibility Seeds of monocotyledonous or dicotyledonous weed plants or crop plants are planted in wood-fiber pots in sandy loam, covered with earth and grown in a greenhouse under good growth conditions. 2 to 3 weeks after sowing, the test plants are treated in the one-leaf stage. The compounds according to the invention, formulated in the form of wettable powders (WP) or as emulsion concentrates (EC), are then sprayed onto the green plant parts as aqueous suspension or emulsion at a water application rate of 600 to 800 I/ha (converted) with the addition of 0.2% of wetting agent. After ca. 3 weeks' standing time of the test plants in the greenhouse under optimum growth conditions, the effect of the preparations is scored visually in comparison with untreated controls (herbicidal effect in percent (%): 100% effect=plants have died, 0% effect=as control plants).

[5] = tested on: Pharbitis purpurea; test: Post-emergence herbicidal effect; type: in vivo; details: Dosage 320 (0.32 kg active substance per hectare); treated in one-leaf stage; visual scoring after ca. 3 weeks vs untreated controls; 100% = plants have died
Experimental: as §2

[6] = tested on: Viola tricolor; test: Post-emergence herbicidal effect; type: in vivo; details: Dosage 320 (0.32 kg active substance per hectare); treated in one-leaf stage; visual scoring after ca. 3 weeks vs untreated controls; 100% = plants have died
Experimental: as §2

[7] = tested on: Veronica persica; test: Post-emergence herbicidal effect; type: in vivo; details: Dosage 320 (0.32 kg active substance per hectare); treated in one-leaf stage; visual scoring after ca. 3 weeks vs untreated controls; 100% = plants have died
Experimental: as §2

[8] = tested on: Setaria viridis; test: Post-emergence herbicidal effect; type: in vivo; details: Dosage 320 (0.32 kg active substance per hectare); treated in one-leaf stage; visual scoring after ca. 3 weeks vs untreated controls; 100% = plants have died
Experimental: as §2

[9] = tested on: Amaranthus retroflexus; test: Post-emergence herbicidal effect; type: in vivo; details: Dosage 320 (0.32 kg active substance per hectare); treated in one-leaf stage; visual scoring after ca. 3 weeks vs untreated controls; 100% = plants have died
Experimental: as §2

[10] = tested on: Echinochloa crus-galli; test: Post-emergence herbicidal effect; type: in vivo; details: Dosage 320 (0.32 kg active substance per hectare); treated in one-leaf stage; visual scoring after ca. 3 weeks vs untreated controls; 100% = plants have died
Experimental: as §2

[11] = tested on: Stellaria media; test: Pre-emergence herbicidal effect; type: in vivo; details: Dosage 320 (0.32 kg active substance per hectare); visual scoring after 3 weeks vs untreated controls; 100% = plants have died
Text: as §1

[12] = tested on: Matricaria inodora; test: Pre-emergence herbicidal effect; type: in vivo; details: Dosage 320 (0.32 kg active substance per hectare); visual scoring after 3 weeks vs untreated controls; 100% = plants have died
Text: as §1

[13] = tested on: Alopecurus myosuroides; test: Pre-emergence herbicidal effect; type: in vivo; details: Dosage 320 (0.32 kg active substance per hectare); visual scoring after 3 weeks vs untreated controls; 100% = plants have died
Text: as §1

[14] = tested on: Viola tricolor; test: Pre-emergence herbicidal effect; type: in vivo; details: Dosage 320 (0.32 kg active substance per hectare); visual scoring after 3 weeks vs untreated controls; 100% = plants have died
Text: as §1

[15] = tested on: Setaria viridis; test: Pre-emergence herbicidal effect; type: in vivo; details: Dosage 320 (0.32 kg active substance per hectare); visual scoring after 3 weeks vs untreated controls; 100% = plants have died
Text: as §1

[16] = tested on: Echinochloa crus-galli; test: Pre-emergence herbicidal effect; type: in vivo; details: Dosage 320 (0.32 kg active substance per hectare); visual scoring after 3 weeks vs untreated controls; 100% = plants have died
Text: as §1

[17] = tested on: Matricaria inodora; test: Post-emergence herbicidal effect; type: in vivo; details: Dosage 320 (0.32 kg active substance per hectare); treated in one-leaf stage; visual scoring after ca. 3 weeks vs untreated controls; 100% = plants have died
Experimental: as §2

[18] = tested on: Abutilon theophrasti; test: Post-emergence herbicidal effect; type: in vivo; details: Dosage 320 (0.32 kg active substance per hectare); treated in one-leaf stage; visual scoring after ca. 3 weeks vs untreated controls; 100% = plants have died
Experimental: as §2

[19] = tested on: Chenopodium album; test: Post-emergence herbicidal effect; type: in vivo; details: Dosage 320 (0.32 kg active substance per hectare); treated in one-leaf stage; visual scoring after ca. 3 weeks vs untreated controls; 100% = plants have died
Experimental: as §2

[20] = tested on: Lolium multiflorum; test: Pre-emergence herbicidal effect; type: in vivo; details: Dosage 320 (0.32 kg active substance per hectare); visual scoring after 3 weeks vs untreated controls; 100% = plants have died
Text: as §1

[21] = tested on: Cyperus esculentus; test: Pre-emergence herbicidal effect; type: in vivo; details: Dosage 320 (0.32 kg active substance per hectare); visual scoring after 3 weeks vs untreated controls; 100% = plants have died
Text: as §1

[22] = logp (HCOOH), chemicophysical data; details: HCOOH (formic acid)
[23] = tested on: Lolium multiflorum; test: Post-emergence herbicidal effect; type: in vivo; details: Dosage 320 (0.32 kg active substance per hectare); treated in one-leaf stage; visual scoring after ca. 3 weeks vs untreated controls; 100% = plants have died
Experimental: as §2

[24] = tested on: Stellaria media; test: Post-emergence herbicidal effect; type: in vivo; details: Dosage 320 (0.32 kg active substance per hectare); treated in one-leaf stage; visual scoring after ca. 3 weeks vs untreated controls; 100% = plants have died
Experimental: as §2

SMILES	Pre-emergence herbicidal effect POLCO [1]	Pre-emergence herbicidal effect VERPE [2]	Pre-emergence herbicidal effect AMARE [3]	Post-emergence herbicidal effect PHBPU [5]	Post-emergence herbicidal effect VIOTR [6]	Post-emergence herbicidal effect VERPE [7]	Post-emergence herbicidal effect AMARE [9]	Post-emergence herbicidal effect ECHCG [10]	Pre-emergence herbicidal effect ALOMY [13]	Pre-emergence herbicidal effect VIOTR [14]	Pre-emergence herbicidal effect SETVI [15]	Pre-emergence herbicidal effect ECHCG [16]	Post-emergence herbicidal effect ABUTH [18]	Pre-emergence herbicidal effect LOLMU [20]	further results
Nc1nc(NC2CCc3ccccc32)cc(C(F)(F)F)n1 (racemic) [Example 1.18]	100%	100%	100%												
Cc1ccc2c(c1)[C@H](Nc1cc(Cl)nc(N)n1)[C@@H](C)C2 [Example 1.42]	100%	100%	100%	100%	90%	80%	100%	90%	100%	100%	100%	100%			Post-emergence herbicidal effect POLCO [4]: 80%; Post-emergence herbicidal effect SETVI [8]: 80%; Pre-emergence herbicidal effect STEME [11]: 100%; Pre-emergence herbicidal effect MATIN [12]: 100%
Cc1ccc2c(c1)C(Nc1cc(C(F)(F)F)nc(N)n1)C(C)C2 (racemic) [Example 1.31]	100%					90%	100%		100%		100%		90%	80%	Post-emergence herbicidal effect MATIN [17]: 90%; Post-emergence herbicidal effect CHEAL [19]: 80%; Pre-emergence herbicidal effect CYPES [21]: 100%
N#Cc1c(N[C@@H]2CCCc3ccccc32)nc(N)nc1-c1ccccc1 [Example 1.53, 2-Amino-4-phenyl-6-[(1R)-1,2,3,4-tetrahydronaphthalen-1-ylamino]pyrimidine-5-carbonitrile]															chromatographic logP [22]: 2.87
Nc1nc(N[C@@H]2CCc3ccccc32)cc(C(F)F)n1 [Example 1.36]				80%	90%	90%	100%	90%					80%		Post-emergence herbicidal effect LOLMU [23]: 90%
Nc1ncc(C(F)(F)F)c(N[C@@H]2CCCc3ccccc32)n1 [Example 1.60, N4-[(1R)-1,2,3,4-tetrahydronaphthalen-1-yl]-5-(trifluoromethyl)pyrimidine-2,4-diamine]															melting point: 120 to 121 °C
Nc1nc(N[C@@H]2CCCc3ccccc32)cc(C(F)F)n1 [Example 1.35]	100%	100%	100%	80%	80%		90%		80%	100%	90%	80%		100%	
Nc1nc(Cl)cc(N[C@@H]2CCc3ccccc32)n1 [Example 1.44]	100%	100%	100%							100%					
Cc1ccc2c(c1)[C@H](Nc1cc(C(F)(F)F)nc(N)n1)[C@@H](C)C2 [Example 1.27, N4-[(1R,2S)-2,6-dimethyl-2,3-dihydro-1H-inden-1-yl]-6-(trifluoromethyl)pyrimidine-2,4-diamine]	100%	100%	100%	85%	85%	85%	100%	85%		100%	100%	100%	90%	80%	chromatographic logP [22]: 2.77; Post-emergence herbicidal effect POLCO [4]: 80%; Post-emergence herbicidal effect SETVI [8]: 80%; Pre-emergence herbicidal effect STEME [11]: 100%; Pre-emergence herbicidal effect MATIN [12]: 100%
Cc1cc(C)c2c(c1)C(Nc1cc(C(F)(F)F)nc(N)n1)CCC2 (racemic) [Example 1.17]		100%	100%												
Cc1ccc2c(c1)[C@H](Nc1cc(C(F)F)nc(N)n1)[C@@H](C)C2 [Example 1.30]	100%	100%	100%	90%	85%	90%	95%	87%	100%	100%	100%	100%	85%	100%	Post-emergence herbicidal effect STEME [24]: 80%; Post-emergence herbicidal effect LOLMU [23]: 80%; Post-emergence herbicidal effect SETVI [8]: 80%; Pre-emergence herbicidal effect STEME [11]: 100%; Pre-emergence herbicidal effect MATIN [12]: 100%
